Results reported in ChEMBL document CHEMBL4350988, “Development of selective small molecule MDM2 degraders based on nutlin” (Eur J Med Chem, 2019).
Values belong to the compound of their own block, whether it stands above or below them. Activity calls are given as the source filed them. The calls are words filed in the database; no cut-off is given here.

Assays:
RS4-11 [1] = assay: Antiproliferative activity against human RS4:11 cells assessed as reduction in cell viability after 48 hrs by MTT assay; type: functional, cell-based; conditions: RS4-11, 48 h
RS4-11 [2] = assay: Antiproliferative activity against human RS4:11 cells assessed as reduction in cell viability at 100 nM after 48 hrs by MTT assay; type: functional, cell-based
[3] = target: T1, Protein cereblon/E3 ubiquitin-protein ligase Mdm2 (Homo sapiens, UniProt Q00987+Q96SW2); assay: Protac activity at CRBN/MDM2 in human RS4:11 cells assessed as increase in degradation of MDM2 at 10 to 100 nM measured after 12 hrs by Western blot analysis; type: cell-based
Target sequence in this assay (Q00987 whole entry, looked up): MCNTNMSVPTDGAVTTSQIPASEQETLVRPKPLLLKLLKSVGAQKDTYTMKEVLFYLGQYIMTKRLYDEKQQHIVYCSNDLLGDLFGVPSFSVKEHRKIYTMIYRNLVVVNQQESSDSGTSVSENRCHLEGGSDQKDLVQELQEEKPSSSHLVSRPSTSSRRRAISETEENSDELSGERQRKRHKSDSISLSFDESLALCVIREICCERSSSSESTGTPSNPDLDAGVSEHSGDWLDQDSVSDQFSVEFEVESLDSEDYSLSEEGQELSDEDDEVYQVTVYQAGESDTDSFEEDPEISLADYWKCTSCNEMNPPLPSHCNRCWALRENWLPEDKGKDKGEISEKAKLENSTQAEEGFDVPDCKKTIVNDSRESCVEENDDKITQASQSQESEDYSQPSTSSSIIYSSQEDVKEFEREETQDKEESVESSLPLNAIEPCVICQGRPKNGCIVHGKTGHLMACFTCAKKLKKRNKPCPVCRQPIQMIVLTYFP
Target sequence in this assay (Q96SW2 whole entry, looked up): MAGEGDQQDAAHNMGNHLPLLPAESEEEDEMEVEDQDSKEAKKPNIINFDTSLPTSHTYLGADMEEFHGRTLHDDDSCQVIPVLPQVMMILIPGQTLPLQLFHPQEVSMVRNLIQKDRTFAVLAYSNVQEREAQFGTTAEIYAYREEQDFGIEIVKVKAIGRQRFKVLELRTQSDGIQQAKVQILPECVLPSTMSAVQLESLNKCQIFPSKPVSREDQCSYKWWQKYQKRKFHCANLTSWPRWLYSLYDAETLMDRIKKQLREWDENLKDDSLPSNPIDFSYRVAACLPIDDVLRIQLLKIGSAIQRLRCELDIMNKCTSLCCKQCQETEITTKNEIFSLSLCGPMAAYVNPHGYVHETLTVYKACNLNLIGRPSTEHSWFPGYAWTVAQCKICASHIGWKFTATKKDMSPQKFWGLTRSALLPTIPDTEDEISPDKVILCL

[4] = target: T1, Protein cereblon/E3 ubiquitin-protein ligase Mdm2; assay: Protac activity at CRBN/MDM2 in human RS4:11 cells assessed as increase in degradation of MDM2 at 100 nM by Western blot analysis; type: cell-based
Target sequence in this assay (Q00987 whole entry, looked up): as the sequence (Q00987 whole entry, looked up) above
Target sequence in this assay (Q96SW2 whole entry, looked up): as the sequence (Q96SW2 whole entry, looked up) above

[5] = target: T1, Protein cereblon/E3 ubiquitin-protein ligase Mdm2; assay: Protac activity at CRBN/MDM2 in human RS4:11 cells assessed as increase in accumulation of p53 at 100 nM by Western blot analysis; type: cell-based
Target sequence in this assay (Q00987 whole entry, looked up): as the sequence (Q00987 whole entry, looked up) above
Target sequence in this assay (Q96SW2 whole entry, looked up): as the sequence (Q96SW2 whole entry, looked up) above

[6] = target: T1, Protein cereblon/E3 ubiquitin-protein ligase Mdm2; assay: Protac activity at CRBN/MDM2 in human RS4:11 cells assessed as upregulation of MDM2 expression at 1 uM measured after 6 hrs by qRT-PCR method; type: cell-based
Target sequence in this assay (Q00987 whole entry, looked up): as the sequence (Q00987 whole entry, looked up) above
Target sequence in this assay (Q96SW2 whole entry, looked up): as the sequence (Q96SW2 whole entry, looked up) above

[7] = target: T1, Protein cereblon/E3 ubiquitin-protein ligase Mdm2; assay: Protac activity at CRBN/MDM2 in human RS4:11 cells assessed as upregulation of P21 expression at 1 uM measured after 6 hrs by qRT-PCR method; type: cell-based
Target sequence in this assay (Q00987 whole entry, looked up): as the sequence (Q00987 whole entry, looked up) above
Target sequence in this assay (Q96SW2 whole entry, looked up): as the sequence (Q96SW2 whole entry, looked up) above

[8] = target: T1, Protein cereblon/E3 ubiquitin-protein ligase Mdm2; assay: Protac activity at CRBN/MDM2 in human RS4:11 cells assessed as effect on TP53 expression at 1 uM measured after 6 hrs by qRT-PCR method; type: cell-based
Target sequence in this assay (Q00987 whole entry, looked up): as the sequence (Q00987 whole entry, looked up) above
Target sequence in this assay (Q96SW2 whole entry, looked up): as the sequence (Q96SW2 whole entry, looked up) above

RS4-11 [9] = assay: Induction of apoptosis in human RS4:11 cells assessed as viable cells at 10 nM after 24 hrs by Annexin-V-FITC/propidium iodide staining based flow cytometry relative to control; type: functional; conditions: RS4-11, 24 h, read-out: Activity
RS4-11 [10] = assay: Induction of apoptosis in human RS4:11 cells assessed as early apoptotic cells at 10 nM after 24 hrs by Annexin-V-FITC/propidium iodide staining based flow cytometry relative to control; type: functional
RS4-11 [11] = assay: Induction of apoptosis in human RS4:11 cells assessed as late apoptotic cells at 10 nM after 24 hrs by Annexin-V-FITC/propidium iodide staining based flow cytometry relative to control; type: functional
RS4-11 [12] = assay: Induction of apoptosis in human RS4:11 cells assessed as necrotic cells at 10 nM after 24 hrs by Annexin-V-FITC/propidium iodide staining based flow cytometry relative to control; type: functional
RS4-11 [13] = assay: Induction of apoptosis in human RS4:11 cells assessed as viable cells at 100 nM after 24 hrs by Annexin-V-FITC/propidium iodide staining based flow cytometry relative to control; type: functional; conditions: RS4-11, 24 h, read-out: Activity
RS4-11 [14] = assay: Induction of apoptosis in human RS4:11 cells assessed as early apoptotic cells at 100 nM after 24 hrs by Annexin-V-FITC/propidium iodide staining based flow cytometry relative to control; type: functional
RS4-11 [15] = assay: Induction of apoptosis in human RS4:11 cells assessed as late apoptotic cells at 100 nM after 24 hrs by Annexin-V-FITC/propidium iodide staining based flow cytometry relative to control; type: functional
RS4-11 [16] = assay: Induction of apoptosis in human RS4:11 cells assessed as necrotic cells at 100 nM after 24 hrs by Annexin-V-FITC/propidium iodide staining based flow cytometry relative to control; type: functional
RS4-11 [17] = assay: Induction of apoptosis in human RS4:11 cells assessed as viable cells at 1000 nM after 24 hrs by Annexin-V-FITC/propidium iodide staining based flow cytometry relative to control; type: functional; conditions: RS4-11, 24 h, read-out: Activity
RS4-11 [18] = assay: Induction of apoptosis in human RS4:11 cells assessed as early apoptotic cells at 1000 nM after 24 hrs by Annexin-V-FITC/propidium iodide staining based flow cytometry relative to control; type: functional
RS4-11 [19] = assay: Induction of apoptosis in human RS4:11 cells assessed as late apoptotic cells at 1000 nM after 24 hrs by Annexin-V-FITC/propidium iodide staining based flow cytometry relative to control; type: functional
RS4-11 [20] = assay: Induction of apoptosis in human RS4:11 cells assessed as necrotic cells at 1000 nM after 24 hrs by Annexin-V-FITC/propidium iodide staining based flow cytometry relative to control; type: functional
[21] = target: T1, Protein cereblon/E3 ubiquitin-protein ligase Mdm2; assay: Protac activity at CRBN/MDM2 in human RS4:11 cells assessed as increase in degradation of MDM2 by Western blot analysis; type: cell-based; conditions: TDE = time-dependent effect
[22] = target: T1, Protein cereblon/E3 ubiquitin-protein ligase Mdm2; assay: Protac activity at CRBN/MDM2 in human RS4:11 cells assessed as maximal MDM2 degradation level at 100 nM after 24 hrs by Western blot analysis relative to control; type: cell-based
[23] = target: T1, Protein cereblon/E3 ubiquitin-protein ligase Mdm2; assay: Protac activity at CRBN/MDM2 in human RS4:11 cells assessed as MDM2 degradation by Western blot analysis; type: cell-based
[24] = target: T1, Protein cereblon/E3 ubiquitin-protein ligase Mdm2; assay: Protac activity at CRBN/MDM2 in human RS4:11 cells assessed as reduction in MDM2 degradation at 100 nM preincubated with ((4S,5R)-2-(4-(tert-butyl)-2-ethoxyphenyl)-4,5-bis(4-chlorophenyl)-4,5-dihydro-1H-imidazol-1-yl)(piperazin-1-yl)methanone for 2 hrs followed by compound addition measured after 4 hrs by Western blot analysis; type: cell-based
[25] = target: T1, Protein cereblon/E3 ubiquitin-protein ligase Mdm2; assay: Protac activity at CRBN/MDM2 in human RS4:11 cells assessed as reduction in MDM2 degradation at 100 nM preincubated with lenalidomide for 2 hrs followed by compound addition measured after 4 hrs by Western blot analysis; type: cell-based
[26] = target: T1, Protein cereblon/E3 ubiquitin-protein ligase Mdm2; assay: Protac activity at CRBN/MDM2 in human RS4:11 cells assessed as MDM2 degradation at 100 nM preincubated with proteasome inhibitior MG132 for 2 hrs followed by compound addition measured after 4 hrs by Western blot analysis; type: cell-based
[27] = target: T1, Protein cereblon/E3 ubiquitin-protein ligase Mdm2; assay: Protac activity at CRBN/MDM2 in human RS4:11 cells assessed as upregulation of MDM2 expression at 100 nM measured after 6 hrs by qRT-PCR method; type: cell-based
[28] = target: T1, Protein cereblon/E3 ubiquitin-protein ligase Mdm2; assay: Protac activity at CRBN/MDM2 in human RS4:11 cells assessed as upregulation of P21 expression at 100 nM measured after 6 hrs by qRT-PCR method; type: cell-based
[29] = target: T1, Protein cereblon/E3 ubiquitin-protein ligase Mdm2; assay: Protac activity at CRBN/MDM2 in human RS4:11 cells assessed as effect on TP53 expression at 30 to 100 nM measured after 6 hrs by qRT-PCR method; type: cell-based
[30] = target: T1, Protein cereblon/E3 ubiquitin-protein ligase Mdm2; assay: Protac activity at CRBN/MDM2 in human RS4:11 cells assessed as degradation of MDM2 at 100 nM to 1 uM by Westernblot analysis; type: cell-based
[31] = target: T1, Protein cereblon/E3 ubiquitin-protein ligase Mdm2; assay: Protac activity at CRBN/MDM2 in human RS4:11 cells assessed as upregulation of P53 expression at 100 nM to 1 uM by Westernblot analysis; type: cell-based
[32] = target: T1, Protein cereblon/E3 ubiquitin-protein ligase Mdm2; assay: Protac activity at CRBN/MDM2 in human RS4:11 cells assessed as increase in P21 expression at 100 nM to 1 uM by Westernblot analysis; type: cell-based
RS4-11 [33] = assay: Induction of apoptosis in human RS4:11 cells assessed as PARP cleavage at 100 nM to 1 uM by Westernblot analysis; type: functional, cell-based
RS4-11 [34] = assay: Induction of apoptosis in human RS4:11 cells assessed as caspase3 expression at 100 nM to 1 uM by Westernblot analysis; type: functional, cell-based
[35] = target: T1, Protein cereblon/E3 ubiquitin-protein ligase Mdm2; assay: Protac activity at CRBN/MDM2 in human RS4:11 cells assessed as PARP cleavage after 6 hrs by Western blot analysis; type: cell-based
[36] = target: T1, Protein cereblon/E3 ubiquitin-protein ligase Mdm2; assay: Protac activity at CRBN/MDM2 in human RS4:11 cells assessed MDM2 degradation at 10 to 100 nM measured after 1 hr by immunoblot analysis; type: cell-based
RS4-11 [37] = assay: Induction of apoptosis in human RS4:11 cells by Annexin-V-FITC/propidium iodide staining based flow cytometry relative to control; type: functional, cell-based

- Activity [3]: Active
Structure (SMILES): CCOc1cc(C(C)(C)C)ccc1C1=N[C@H](c2ccc(Cl)cc2)[C@H](c2ccc(Cl)cc2)N1C(=O)N1CCN(C(=O)CNC(=O)CCCC#Cc2cccc3c2CN(C2CCC(=O)NC2=O)C3=O)CC1 (some centres undefined)

- Activity [6]: Active
- Activity [7]: Active
- Activity [8]: inactive
Structure (SMILES): CCOc1cc(C(C)(C)C)ccc1C1=N[C@@H](c2ccc(Cl)cc2)[C@@H](c2ccc(Cl)cc2)N1C(=O)N1CCNCC1
- viability at 0.01 µM (RS4-11 [9]): 84.2%
- Activity (RS4-11 [10]): 10.5%
- Activity (RS4-11 [11]): 5.37%
- Activity (RS4-11 [12]): 0.00582%
- viability at 0.1 µM (RS4-11 [13]): 84.4%
- Activity (RS4-11 [14]): 10.1%
- Activity (RS4-11 [15]): 5.45%
- Activity (RS4-11 [16]): 0%
- viability at 1 µM (RS4-11 [17]): 69.5%
- Activity (RS4-11 [18]): 13.7%
- Activity (RS4-11 [19]): 16.3%
- Activity (RS4-11 [20]): 0.46%

Continued, compound first:

Structure (SMILES): CCOc1cc(C(C)(C)C)ccc1C1=NC(c2ccc(Cl)cc2)C(c2ccc(Cl)cc2)N1C(=O)N1CCN(CC#Cc2cccc3c2CN(C2CCC(=O)NC2=O)C3=O)CC1 (racemic)
- IC50 (RS4-11 [1]): 7.2 nM
- Activity (RS4-11 [2]): Active
- Activity [3]: Active
- Activity [4]: Active
- Activity [5]: Active

Structure (SMILES): CCOc1cc(C(C)(C)C)ccc1C1=N[C@@H](c2ccc(Cl)cc2)[C@@H](c2ccc(Cl)cc2)N1C(=O)N1CCN(C(=O)CCC#Cc2cccc3c2CN(C2CCC(=O)NC2=O)C3=O)CC1 (some centres undefined)
- Activity [3]: Active

Structure (SMILES): CCOc1cc(C(C)(C)C)ccc1C1=N[C@@H](c2ccc(Cl)cc2)[C@@H](c2ccc(Cl)cc2)N1C(=O)N1CCN(CC#Cc2cccc3c2CN(C2CCC(=O)NC2=O)C3=O)CC1 (some centres undefined)
- IC50 (RS4-11 [1]): 3.2 nM
- Activity (RS4-11 [2]): Active
- Activity [3]: Active
- Activity [4]: Active
- Activity [5]: Active
- Activity [21]: Tde
- Emax [22]: 90%
- Activity [23]: Dose-dependent effect
- DC50 [23]: 23 nM
- Activity [24]: Active
- Activity [25]: Active
- Activity [26]: Active
- Activity [27]: Active
- Activity [28]: Active
- Activity [29]: inactive
- Activity [30]: Active
- Activity [31]: Active
- Activity [32]: Active
- Activity (RS4-11 [33]): Active
- Activity (RS4-11 [34]): Active
- viability at 0.01 µM (RS4-11 [9]): 79.2%
- Activity (RS4-11 [10]): 10.5%
- Activity (RS4-11 [11]): 10.1%
- Activity (RS4-11 [12]): 0.2%
- viability at 0.1 µM (RS4-11 [13]): 26%
- Activity (RS4-11 [14]): 22.3%
- Activity (RS4-11 [15]): 51.6%
- Activity (RS4-11 [16]): 0.1%
- viability at 1 µM (RS4-11 [17]): 28.8%
- Activity (RS4-11 [18]): 27.1%
- Activity (RS4-11 [19]): 43.9%
- Activity (RS4-11 [20]): 0.27%
- Activity [35]: Active
- Activity [36]: Active
- Activity (RS4-11 [37]): Dose-dependent effect

Structure (SMILES): CCOc1cc(C(C)(C)C)ccc1C1=N[C@@H](c2ccc(Cl)cc2)[C@@H](c2ccc(Cl)cc2)N1C(=O)N1CCN(CCC#Cc2cccc3c2CN(C2CCC(=O)NC2=O)C3=O)CC1 (some centres undefined)
- Activity (RS4-11 [2]): Active

Structure (SMILES): CCOc1cc(C(C)(C)C)ccc1C1=N[C@@H](c2ccc(Cl)cc2)[C@@H](c2ccc(Cl)cc2)N1C(=O)N1CCN(CCCC#Cc2cccc3c2CN(C2CCC(=O)NC2=O)C3=O)CC1 (some centres undefined)
- Activity (RS4-11 [2]): Active
